Patent US20120202690A1, “HERBICIDAL COMPOUNDS” (SYNGENTA LIMITED, priority 2009, published 2012)

Key:
Solanum nigrum (SOLNI) [1] = assay: Pre-emergence biological efficacy, glasshouse, 1000 g/ha, evaluated after 13 days (100=total damage to plant; 0=no damage to plant); format: in vivo; conditions: Solanum nigrum, 312 h, read-out: Percentage damage caused to weed species, pre-emergence, SOLNI; for pest or weed control at 1000 g/ha: rate 1,000 g/ha
Outline: (§1)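 Test species are sown into pots of standard soil. Plants then grow in the glasshouse under controlled conditions (24/16° C. day/night, 14 hours light, 65% humidity) and receive water twice a day.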

[2] = tested on: Ipomoea hederaceae (IPOHE); assay: as above; format: in vivo; conditions: Ipomoea, 312 h, read-out: Percentage damage caused to weed species, pre-emergence, IPOHE; for pest or weed control at 1000 g/ha: rate 1,000 g/ha
Outline: as §1

[3] = tested on: Alopecurus myosuroides (ALOMY); assay: as above; format: in vivo; conditions: Alopecurus myosuroides, 312 h, read-out: Percentage damage caused to weed species, pre-emergence, ALOMY; for pest or weed control at 1000 g/ha: rate 1,000 g/ha
Outline: as §1

[4] = tested on: Echinochloa crus-galli (ECHCG); assay: as above; format: in vivo; conditions: Echinochloa crus-galli, 312 h, read-out: Percentage damage caused to weed species, pre-emergence, ECHCG; for pest or weed control at 1000 g/ha: rate 1,000 g/ha
Outline: as §1

[5] = tested on: Amaranthus retroflexus (AMARE); assay: as above; format: in vivo; conditions: Amaranthus retroflexus, 312 h, read-out: Percentage damage caused to weed species, pre-emergence, AMARE; for pest or weed control at 1000 g/ha: rate 1,000 g/ha
Outline: as §1

Setaria faberi (SETFA) [6] = assay: as above; format: in vivo; conditions: Setaria faberi, 312 h, read-out: Percentage damage caused to weed species, pre-emergence, SETFA; for pest or weed control at 1000 g/ha: rate 1,000 g/ha
Outline: as §1

Solanum nigrum (SOLNI) [7] = assay: Post-emergence biological efficacy, glasshouse, 500 or 1000 g/ha, evaluated after 13 days (100=total damage to plant; 0=no damage to plant); format: in vivo; conditions: Solanum nigrum, 312 h, read-out: Percentage damage caused to weed species, post-emergence, SOLNI; for pest or weed control at 1000 g/ha: rate 1,000 g/ha
Outline: (§2)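 Standard soil, potted from seed; post-emergence treatment; glasshouse 24/16° C. (day/night), 14 h light, 65% humidity; watering twice daily.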

[8] = tested on: Ipomoea hederaceae (IPOHE); assay: as above; format: in vivo; conditions: Ipomoea, 312 h, read-out: Percentage damage caused to weed species, post-emergence, IPOHE; for pest or weed control at 1000 g/ha: rate 1,000 g/ha
Outline: as §2

[9] = tested on: Echinochloa crusgaffi (ECHCG); assay: as above; format: in vivo; conditions: Echinochloa, 312 h, read-out: Percentage damage caused to weed species, post-emergence, ECHCG; for pest or weed control at 1000 g/ha: rate 1,000 g/ha
Outline: as §2

[10] = tested on: Alopecurus myosuroides (ALOMY); assay: as above; format: in vivo; conditions: Alopecurus myosuroides, 312 h, read-out: Percentage damage caused to weed species, post-emergence, ALOMY; for pest or weed control at 1000 g/ha: rate 1,000 g/ha
Outline: as §2

[11] = tested on: Amaranthus retroflexus (AMARE); assay: as above; format: in vivo; conditions: Amaranthus retroflexus, 312 h, read-out: Percentage damage caused to weed species, post-emergence, AMARE; for pest or weed control at 1000 g/ha: rate 1,000 g/ha
Outline: as §2

Setaria faberi (SETFA) [12] = assay: as above; format: in vivo; conditions: Setaria faberi, 312 h, read-out: Percentage damage caused to weed species, post-emergence, SETFA; for pest or weed control at 1000 g/ha: rate 1,000 g/ha
Outline: as §2

| SMILES | melting point | pest or weed control at 1000 g/ha (Solanum nigrum (SOLNI) [1]) | pest or weed control at 1000 g/ha [2] | pest or weed control at 1000 g/ha [3] | pest or weed control at 1000 g/ha [4] | pest or weed control at 1000 g/ha [5] | pest or weed control at 1000 g/ha (Setaria faberi (SETFA) [6]) | pest or weed control at 1000 g/ha (Solanum nigrum (SOLNI) [7]) | pest or weed control at 1000 g/ha [8] | pest or weed control at 1000 g/ha [9] | pest or weed control at 1000 g/ha [10] | pest or weed control at 1000 g/ha [11] | pest or weed control at 1000 g/ha (Setaria faberi (SETFA) [12]) | also measured |
| --- | --- | --- | --- | --- | --- | --- | --- | --- | --- | --- | --- | --- | --- | --- |
| COC(=O)c1nc(-c2ccc(Cl)c(F)c2)nc2c1n(Cc1ccccc1)c(=O)c(=O)n2Cc1ccccc1 [Compound 95-160, 2-(4-chloro-3-fluorophenyl)-5,8-dibenzyl-6,7-dioxo-4-methoxycarbonyl-5,6,7,8-tetrahydropteridine] | 211 °C | – | – | – | – | – | – | – | – | – | – | – | – | pest or weed control at 250 g/ha (Solanum nigrum (SOLNI) [1]; rate 250 g/ha): 0%; pest or weed control at 250 g/ha ([2]; rate 250 g/ha): 0%; pest or weed control at 250 g/ha ([3]; rate 250 g/ha): 0%; pest or weed control at 250 g/ha ([4]; rate 250 g/ha): 0%; pest or weed control at 250 g/ha ([5]; rate 250 g/ha): 0%; pest or weed control at 250 g/ha (Setaria faberi (SETFA) [6]; rate 250 g/ha): 0%; pest or weed control at 250 g/ha (Solanum nigrum (SOLNI) [7]; rate 250 g/ha): 30%; pest or weed control at 250 g/ha ([8]; rate 250 g/ha): 20%; pest or weed control at 250 g/ha ([9]; rate 250 g/ha): 10%; pest or weed control at 250 g/ha ([10]; rate 250 g/ha): 10%; pest or weed control at 250 g/ha ([11]; rate 250 g/ha): 20%; pest or weed control at 250 g/ha (Setaria faberi (SETFA) [12]; rate 250 g/ha): 40% |
| COC(=O)c1nc(-c2ccc(Cl)c(OC)c2F)nc2c1N(Cc1ccccc1)CCN2Cc1ccccc1 [Compound 95-168, 2-(4-Chloro-2-fluoro-3-methoxyphenyl)-5,8-dibenzyl-4-methoxy-carbonyl-5,6,7,8-tetrahydropteridine] | 146 °C | 0% | 0% | 0% | 0% | 0% | 0% | 10% | 10% | 0% | 0% | 0% | 0% | – |
| COC(=O)c1nc(C2CC2)nc2c1Nc1ccccc1N2 [Compound 119-28, 2-Cyclo-propyl-4-methoxy-carbonyl-5,10-dihydro-benzo[g] pteridine] | 217 to 219 °C | 0% | 0% | 0% | 0% | 0% | 0% | 20% | 10% | 0% | 0% | 20% | 0% | – |
| COC(=O)c1nc(-c2ccc(Cl)c(OC)c2F)nc2ncccc12 [Compound 123-50, 2-(4-chloro-2-fluoro-3-methoxyphenyl)-4-methoxycarbonyl-pyrido[2,3-d]pyrimidine] | 160 to 162 °C | 0% | 0% | 0% | 0% | 0% | 0% | 20% | 10% | 10% | 0% | 0% | 10% | – |
